Laboratory results: US10544113B2 (priority 2016, dated 2020)
Like-named read-outs stand apart in the source and are kept apart here.

Target: mu-opioid receptor (MOR) (Homo sapiens (Human), UniProt P35372)
Assay: cell-based
Conditions: combined with a MOR antagonist; for AUC: AUC of [Ca2+]i fluorescence, CHO-K1/MOR/Gα15 cells
Method: In an exemplary in vitro screening method for identifying antagonist-to-agonist allosteric modifiers of a MOR, cells that express a MOR are treated with a test compound and a MOR antagonist in a cellular calcium fluorescent assay and fluorescence intensity is then measured to determine whether the MOR is activated. A test compound is identified as an antagonist-to-agonist allosteric modifier of the MOR if the MOR is activated.
EC50 herein refers to the concentration of a compound that induces a response halfway between the baseline and the maximum after a specified exposure time. AUC refers to the area under the response curve, an indication of the compound's capability of activating a MOR when combined with a MOR antagonist.
Human embryonic kidney 293 (HEK-293) cells constitutively expressing MOR (HEK-MOR) and DOR (HEK-DOR) (kindly provided by Dr. Ping-Yee Law, University of Minnesota, USA) were cultured in high-glucose Dulbecco's modified Eagle's medium (DMEM, GIBCO) supplemented with 400 μg/mL G418 (Sigma), 2 mM L-glutamine and P/S/F (100 units/mL penicillin, 100 μg/mL streptomycin, 10% fetal bovine serum). Chinese hamster ovary (CHO)-K1 cells, stably expressing hMOR and Gα15 (CHO-K1/MOR/Gα15), were cultured in F12 medium (GIBCO) supplemented with 10 μg/mL Hygromycin B (Invivogen), 20 μg/mL Zeocin (Invivogen) P/S/F (100 units/mL penicillin, 100 μg/mL streptomycin, 10% fetal bovine serum). The cultures were incubated at 37° C. in a humidified 5% CO2 incubator.
One day before the assay, CORNING® black with clear flat bottom 96-well assay plates were coated with a 0.1 mg/mL Poly-L-Lysine solution. CHO-K1/MOR/Gα15 cells were suspended in the F12 medium and plated at a density of ˜8×10^4 cells/well in 200 μL medium. Cells were incubated in a humidified atmosphere of 10% CO2 at 37° C. overnight so as to reach an 80-90% confluent cell monolayer before assay. At the day of assay, 150 μL medium/well was removed from plate. To each well, 50 μL FLIPR® calcium assay reagent dissolved in 1× assay buffer (HBSS: KCl 5 mM, KH2PO4 0.3 mM, NaCl 138 mM, NaHCO3 4 mM, Na2HPO4 0.3 mM, d-glucose 5.6 mM, with additional 20 mM HEPES and 13 mM CaCl2, pH 7.4), with 2.5 mM probenecid was added and the plate was incubated at 37° C. for 1 h. Compounds and other reagents were dissolved in the assay buffer. Using a FlexStationIII (Molecular Devices Corp.), the [Ca^2+]i fluorescence increases after robotic injections of compounds or other reagents were monitored every 1.52 s interval with excitation wavelength at 485 nm and with emission wavelength at 525 nm. The [Ca^2+]i fluorescence was measured up to 90 s after agonist injection.
A CHO-K1 cell line, expressing a MOR and Gα15 (GenScript), was used to set up a sensitive high-throughput screen (HTS) system. In a FLIPR® calcium assay using CHO-K1/MOR/Gα15 cells, activation of MOR elicits an intracellular calcium release leading to an increase in the relative fluorescence units (FRU). […] The HTS was performed in the absence or presence of an opioid antagonist, naloxone (25 nM), to identify antagonist to agonist allosteric modifiers (AAM).
A CHO-K1 cell line, expressing a MOR and Gα15 (GenScript), was used to set up a sensitive assay system for detecting μ-opioid receptor activation. […] The assay was performed in the presence of an opioid antagonist, i.e., naloxone (25 nM), naltrexone (20 nM), samidorphan (10 nM), naloxonazine dihydrochloride (20 nM), β-funaltrexamine hydrochloride (20 nM), cyprodime hydrochloride (500 nM), or nalmefene (20 nM), in combination with compound 58, an antagonist to agonist allosteric modifier (AAM), to identify activation of the μ-opioid receptor.

mu-opioid receptor (MOR), sequence (P35372 whole entry): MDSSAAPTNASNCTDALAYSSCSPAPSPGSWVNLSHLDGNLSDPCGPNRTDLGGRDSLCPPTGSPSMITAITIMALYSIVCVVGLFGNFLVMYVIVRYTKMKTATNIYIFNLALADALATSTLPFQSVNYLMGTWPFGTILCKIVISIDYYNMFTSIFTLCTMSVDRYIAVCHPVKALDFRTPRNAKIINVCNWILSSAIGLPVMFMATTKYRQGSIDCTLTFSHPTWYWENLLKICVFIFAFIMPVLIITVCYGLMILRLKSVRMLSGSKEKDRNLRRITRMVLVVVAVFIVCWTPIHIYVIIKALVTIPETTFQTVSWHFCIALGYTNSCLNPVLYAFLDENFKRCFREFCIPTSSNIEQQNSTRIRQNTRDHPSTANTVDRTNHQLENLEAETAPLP

Row | SMILES | EC50 (EC50, CHO-K1/MOR/Gα15 cells) | AUC | FLIPR Ca^2+ AUC | EC50 (read-out: FLIPR Ca^2+ EC50)
1 | Cc1cc(C(=O)NS(=O)(=O)c2ccc(F)cc2F)ccc1N1C(=O)CSC1c1ccc(F)cc1 (stereo not shown) [Example 206] | < 10 µM |  |  | 
2 | Cc1cc(S(=O)(=O)NC(=O)c2ccc(N3C(=O)CSC3c3ccc(F)cc3)c(C)c2)c(C)cc1Cl (stereo not shown) [Example 208] | < 10 µM |  |  | 
3 | Cc1cc(C(=O)NS(=O)(=O)c2cccc3c(N(C)C)cccc23)ccc1N1C(=O)CSC1c1ccc(F)cc1 (stereo not shown) [Example 210] | < 10 µM | more than 5000 | 9425 | 0.7 µM
4 | Cc1cc(C(=O)NS(=O)(=O)c2cccnc2)ccc1N1C(=O)CSC1c1ccc(F)cc1 (stereo not shown) [Example 211] | < 10 µM | more than 5000 | 8779 | 0.3 µM
5 | Cc1cc(C(=O)NS(=O)(=O)c2c(C)noc2C)ccc1N1C(=O)CSC1c1ccc(F)cc1 (stereo not shown) [Example 213] | < 10 µM | more than 5000 | 9005 | 0.9 µM
6 | CCONC(=O)c1ccc(N2C(=O)CSC2c2ccc(F)cc2)c(C)c1 (stereo not shown) [Example 215] |  |  | 10945 | 4.1 µM
7 | Cc1cc(C(=O)NOCc2ccccc2)ccc1N1C(=O)CSC1c1ccc(F)cc1 (stereo not shown) [Example 217] |  |  | 9543 | 4.1 µM
8 | Cc1cc(C(=O)NO)ccc1N1C(=O)CSC1c1ccc(F)cc1 (stereo not shown) [Example 219] |  |  | 14222 | 6.4 µM
9 | Cc1cc(C(=O)NN)ccc1N1C(=O)CSC1c1ccc(F)cc1 (stereo not shown) [Example 220] |  |  | 13871 | 4.9 µM
10 | Cc1cc(-c2nnn[nH]2)ccc1N1C(=O)CSC1c1ccc(F)cc1 (stereo not shown) [Example 221] |  |  | 8284 | 0.2 µM
11 | Cc1cc(-c2ccco2)ccc1N1C(=O)CSC1c1ccc(F)cc1 (stereo not shown) [Example 224] |  | more than 5000 | 7384 | 11.7 µM
12 | Cc1nnc(-c2ccc(N3C(=O)CSC3c3ccc(F)cc3)c(C)c2)o1 (stereo not shown) [Example 227] |  |  | 15410 | 5.5 µM
13 | Cc1cc(-c2nnc(C(F)(F)F)o2)ccc1N1C(=O)CSC1c1ccc(F)cc1 (stereo not shown) [Example 228] |  |  | 7035 | 8.6 µM
14 | CCCOC(=O)c1ccc(N2C(=O)CSC2c2ccc(F)cc2)c(C)c1 (stereo not shown) [Example 229] |  |  | 13237 | 9.7 µM
15 | Cc1cc(C(=O)OC(C)C)ccc1N1C(=O)CSC1c1ccc(F)cc1 (stereo not shown) [Example 231] | < 10 µM |  |  | 
16 | CCCCOC(=O)c1ccc(N2C(=O)CSC2c2ccc(F)cc2)c(C)c1 (stereo not shown) [Example 234] |  |  | 10062 | 9 µM
17 | Cc1cc(C(=O)OC(C)(C)C)ccc1N1C(=O)CSC1c1ccc(F)cc1 (stereo not shown) [Example 235] |  |  | 15203 | 6.8 µM
18 | Cc1cc(C(=O)OC2(C)CC2)ccc1N1C(=O)CSC1c1ccc(F)cc1 (stereo not shown) [Example 236] |  |  | 13348 | 4.7 µM
19 | Cc1cc(C(=O)OCCC2CC2)ccc1N1C(=O)CSC1c1ccc(F)cc1 (stereo not shown) [Example 238] |  | more than 5000 | 15409 | 12.3 µM

Row | SMILES | EC50 (EC50, CHO-K1/MOR/Gα15 cells) | AUC | FLIPR Ca^2+ AUC | EC50 (read-out: FLIPR Ca^2+ EC50)
20 | Cc1cc(C(=O)OCC2CCCC2)ccc1N1C(=O)CSC1c1ccc(F)cc1 (stereo not shown) [Example 239] | < 10 µM |  | 4342 | 9.4 µM
21 | Cc1cc(C(=O)OCCOCc2ccccc2)ccc1N1C(=O)CSC1c1ccc(F)cc1 (stereo not shown) [Example 258] | < 10 µM | more than 5000 | 6353 | 3.3 µM
22 | Cc1cc(C(=O)OCc2cccnc2)ccc1N1C(=O)CSC1c1ccc(F)cc1 (stereo not shown) [Example 261] | < 10 µM | more than 5000 | 11434 | 2.9 µM
23 | Cc1cc(C(=O)OCCCc2ccccn2)ccc1N1C(=O)CSC1c1ccc(F)cc1 (stereo not shown) [Example 263] | < 10 µM | more than 5000 | 14918 | 9.2 µM
24 | Cc1cc(C(=O)OCCc2scnc2C)ccc1N1C(=O)CSC1c1ccc(F)cc1 (stereo not shown) [Example 266] |  |  | 12653 | 4.6 µM
25 | COCCCOC(=O)c1ccc(N2C(=O)CSC2c2ccc(F)cc2)c(C)c1 (stereo not shown) [Example 267] |  |  | 15960 | 6.4 µM
26 | CC(=O)COC(=O)c1ccc(N2C(=O)CSC2c2ccc(F)cc2)c(C)c1 (stereo not shown) [Example 268] |  |  | 12787 | 3.8 µM
27 | Cc1cc(C(=O)OCCC#N)ccc1N1C(=O)CSC1c1ccc(F)cc1 (stereo not shown) [Example 269] |  |  | 14183 | 12.3 µM
28 | CSCCOC(=O)c1ccc(N2C(=O)CSC2c2ccc(F)cc2)c(C)c1 (stereo not shown) [Example 270] | < 10 µM |  |  | 
29 | CCSCCOC(=O)c1ccc(N2C(=O)CSC2c2ccc(F)cc2)c(C)c1 (stereo not shown) [Example 271] |  |  | 11997 | 14 µM
30 | CC(=O)OCCOC(=O)c1ccc(N2C(=O)CSC2c2ccc(F)cc2)c(C)c1 (stereo not shown) [Example 272] | < 10 µM |  |  | 
31 | Cc1cc(C(=O)OCOC(=O)C(C)(C)C)ccc1N1C(=O)CSC1c1ccc(F)cc1 (stereo not shown) [Example 273] | < 10 µM |  | 12265 | 5.7 µM
32 | Cc1cc(C(=O)OCC2CCCO2)ccc1N1C(=O)CSC1c1ccc(F)cc1 (stereo not shown) [Example 275] |  |  | 11236 | 26.9 µM
33 | Cc1cc(C(=O)OCC2COC(C)(C)O2)ccc1N1C(=O)CSC1c1ccc(F)cc1 (stereo not shown) [Example 276] | < 10 µM |  | 15090 | 6.3 µM
34 | Cc1cc(C(=O)OC2COC(C)(C)OC2)ccc1N1C(=O)CSC1c1ccc(F)cc1 (stereo not shown) [Example 277] | < 10 µM |  | 14634 | 6.1 µM
35 | COCC(C)OC(=O)c1ccc(N2C(=O)CSC2c2ccc(F)cc2)c(C)c1 (stereo not shown) [Example 279] |  |  | 10883 | 4.1 µM
36 | CCOCCOC(=O)c1ccc(N2C(=O)CSC2c2ccc(F)cc2)c(C)c1 (stereo not shown) [Example 281] |  |  | 9792 | 4.5 µM
37 | Cc1cc(C(=O)OCC(F)(F)F)ccc1N1C(=O)CSC1c1ccc(F)cc1 (stereo not shown) [Example 286] | < 10 µM | more than 5000 | 13001 | 9.2 µM
38 | Cc1cc(C(=O)OCCN(C)C)ccc1N1C(=O)CSC1c1ccc(F)cc1 (stereo not shown) [Example 290] |  |  | 14778 | 10 µM
